Test system: participants with migraine (qualifying prodrome events)
Assay: Phase 3 crossover study: absence of prodrome symptoms over time
Type: in vivo, human
Conditions: 100 mg in prodrome; for Absence of dizziness, Nonresponder (%) / Absence of dizziness, Odds ratio vs. placebo / Absence of dizziness, Responder (%) / Absence of fatigue, Nonresponder (%) / Absence of fatigue, Odds ratio vs. placebo / Absence of fatigue, Responder (%) / Absence of neck pain, Nonresponder (%) / Absence of neck pain, Odds ratio vs. placebo / Absence of neck pain, Responder (%) / Absence of sensitivity to light, Nonresponder (%) / Absence of sensitivity to light, Odds ratio vs. placebo / Absence of sensitivity to light, Responder (%) / Absence of sensitivity to sound, Nonresponder (%) / Absence of sensitivity to sound, Odds ratio vs. placebo / Absence of sensitivity to sound, Responder (%): participants with symptom at predose
Procedure: A phase 3, multicenter, randomized, double-blind, placebo-controlled, crossover study was carried out to evaluate the efficacy, safety, and tolerability of oral ubrogepant in the acute treatment of migraine when administered during the prodrome. The study evaluated whether treatment during the initial phase of a migraine attack (i.e., the prodrome or premonitory phase) prior to the onset of headache, can attenuate the severity of the headache phase and reduce disability.
Eligible participants were randomized (1:1) to treatment sequences A or B in this crossover study. Participants randomized to Treatment Sequence A received placebo to treat their first qualifying prodrome event and ubrogepant 100 mg to treat their second qualifying prodrome event. For those randomized to Treatment Sequence B, they received the reverse: ubrogepant 100 mg to treat their first qualifying prodrome event and placebo to treat their second qualifying prodrome event.
N1 is the number of participants with the prodrome symptom at predose. N2 is the number of participants with non-missing prodrome symptom intensity assessment by timepoint after dose. The proportion of events with absence of sensitivity to light after ubrogepant 100 mg was numerically greater than after placebo, starting at 2 hours post-dose and extending through 48 hours (nominal P≤0.0109 for hours 2-8).
N1 is the number of participants with the prodrome symptom at predose. N2 is the number of participants with non-missing prodrome symptom intensity assessment by timepoint after dose. The difference in response rates was nominally significant for the ubrogepant 100 mg dose group compared with placebo as early as 3 hours post-dose administered during the prodrome.
N1 is the number of participants with the prodrome symptom at predose. N2 is the number of participants with non-missing prodrome symptom intensity assessment by timepoint after dose.

C[C@@H]1[C@H](c2ccccc2)C[C@H](NC(=O)c2cnc3c(c2)C[C@@]2(C3)C(=O)Nc3ncccc32)C(=O)N1CC(F)(F)F [Ubrogepant, (3′S)—N-((3S,5S,6R)-6-methyl-2-oxo-5-phenyl-1-(2,2,2-trifluoroethyl)piperidin-3-yl)-2′-oxo-1′,2′,5,7-tetrahydrospiro[cyclopenta[b]pyridine-6,3′-pyrrolo[2,3-b]pyridine]-3-carboxamide]
Response rates vs placebo, absence of dizziness: Numerically higher response rates | Response rates vs placebo, absence of sensitivity to sound: Numerically higher response rates | Absence of dizziness, Nonresponder (%) (1 Hour post dose): (90.0) % | Absence of dizziness, Odds ratio vs. placebo (1 Hour post dose): 0.96 | Absence of dizziness, Responder (%) (1 Hour post dose): (10.0) % | Absence of fatigue, Nonresponder (%) (1 Hour post dose): (95.1) % | Absence of fatigue, Odds ratio vs. placebo (1 Hour post dose): 1.23 | Absence of fatigue, Responder (%) (1 Hour post dose): (4.9) % | Absence of neck pain, Nonresponder (%) (1 Hour post dose): (95.8) % | Absence of neck pain, Odds ratio vs. placebo (1 Hour post dose): 1.43 | Absence of neck pain, Responder (%) (1 Hour post dose): (4.2) % | Absence of sensitivity to light, Nonresponder (%) (1 Hour post dose): (95.2) % | Absence of sensitivity to light, Odds ratio vs. placebo (1 Hour post dose): 1.08 | Absence of sensitivity to light, Responder (%) (1 Hour post dose): (4.8) % | Absence of sensitivity to sound, Nonresponder (%) (1 Hour post dose): (92.0) % | Absence of sensitivity to sound, Odds ratio vs. placebo (1 Hour post dose): 1.23 | Absence of sensitivity to sound, Responder (%) (1 Hour post dose): (8.0) % | Absence of dizziness, Nonresponder (%) (2 Hours post dose): (70.7) % | Absence of dizziness, Odds ratio vs. placebo (2 Hours post dose): 1.17 | Absence of dizziness, Responder (%) (2 Hours post dose): (29.3) % | Absence of fatigue, Nonresponder (%) (2 Hours post dose): (81.6) % | Absence of fatigue, Odds ratio vs. placebo (2 Hours post dose): 1.43 | Absence of fatigue, Responder (%) (2 Hours post dose): (18.4) % | Absence of neck pain, Nonresponder (%) (2 Hours post dose): (84.6) % | Absence of neck pain, Odds ratio vs. placebo (2 Hours post dose): 1.39 | Absence of neck pain, Responder (%) (2 Hours post dose): (15.4) % | Absence of sensitivity to light, Nonresponder (%) (2 Hours post dose): (80.5) % | Absence of sensitivity to light, Odds ratio vs. placebo (2 Hours post dose): 1.72 | Absence of sensitivity to light, Responder (%) (2 Hours post dose): (19.5) % | Absence of sensitivity to sound, Nonresponder (%) (2 Hours post dose): (74.7) % | Absence of sensitivity to sound, Odds ratio vs. placebo (2 Hours post dose): 1.59 | Absence of sensitivity to sound, Responder (%) (2 Hours post dose): (25.3) % | Absence of dizziness, Nonresponder (%) (3 Hours post dose): (60.7) % | Absence of dizziness, Odds ratio vs. placebo (3 Hours post dose): 1.60 | Absence of dizziness, Responder (%) (3 Hours post dose): (39.3) % | Absence of fatigue, Nonresponder (%) (3 Hours post dose): (72.7) % | Absence of fatigue, Odds ratio vs. placebo (3 Hours post dose): 1.85 | Absence of fatigue, Responder (%) (3 Hours post dose): (27.3) % | Absence of neck pain, Nonresponder (%) (3 Hours post dose): (71.1) % | Absence of neck pain, Odds ratio vs. placebo (3 Hours post dose): 2.04 | Absence of neck pain, Responder (%) (3 Hours post dose): (28.9) % | Absence of sensitivity to light, Nonresponder (%) (3 Hours post dose): (67.6) % | Absence of sensitivity to light, Odds ratio vs. placebo (3 Hours post dose): 1.58 | Absence of sensitivity to light, Responder (%) (3 Hours post dose): (32.4) % | Absence of sensitivity to sound, Nonresponder (%) (3 Hours post dose): (64.4) % | Absence of sensitivity to sound, Odds ratio vs. placebo (3 Hours post dose): 1.45 | Absence of sensitivity to sound, Responder (%) (3 Hours post dose): (35.6) % | Absence of dizziness, Nonresponder (%) (4 Hours post dose): (50.0% | Absence of dizziness, Odds ratio vs. placebo (4 Hours post dose): 1.37 | Absence of dizziness, Responder (%) (4 Hours post dose): (50.0) % | Absence of fatigue, Nonresponder (%) (4 Hours post dose): (65.2) % | Absence of fatigue, Odds ratio vs. placebo (4 Hours post dose): 1.93 | Absence of fatigue, Responder (%) (4 Hours post dose): (34.8) % | Absence of neck pain, Nonresponder (%) (4 Hours post dose): (61.3) % | Absence of neck pain, Odds ratio vs. placebo (4 Hours post dose): 2.27 | Absence of neck pain, Responder (%) (4 Hours post dose): (38.7) % | Absence of sensitivity to light, Nonresponder (%) (4 Hours post dose): (55.2) % | Absence of sensitivity to light, Odds ratio vs. placebo (4 Hours post dose): 1.46 | Absence of sensitivity to light, Responder (%) (4 Hours post dose): (44.8) % | Absence of sensitivity to sound, Nonresponder (%) (4 Hours post dose): (49.3) % | Absence of sensitivity to sound, Odds ratio vs. placebo (4 Hours post dose): 1.97 | Absence of sensitivity to sound, Responder (%) (4 Hours post dose): (50.7) % | Absence of dizziness, Nonresponder (%) (6 Hours post dose): (37.8) % | Absence of dizziness, Odds ratio vs. placebo (6 Hours post dose): 1.45 | Absence of dizziness, Responder (%) (6 Hours post dose): (62.2) % | Absence of fatigue, Nonresponder (%) (6 Hours post dose): (56.3) % | Absence of fatigue, Odds ratio vs. placebo (6 Hours post dose): 1.46 | Absence of fatigue, Responder (%) (6 Hours post dose): (43.7) % | Absence of neck pain, Nonresponder (%) (6 Hours post dose): (52.0) % | Absence of neck pain, Odds ratio vs. placebo (6 Hours post dose): 1.68 | Absence of neck pain, Responder (%) (6 Hours post dose): (48.0) % | Absence of sensitivity to light, Nonresponder (%) (6 Hours post dose): (42.1) % | Absence of sensitivity to light, Odds ratio vs. placebo (6 Hours post dose): 1.75 | Absence of sensitivity to light, Responder (%) (6 Hours post dose): (57.9) % | Absence of sensitivity to sound, Nonresponder (%) (6 Hours post dose): (43.3) % | Absence of sensitivity to sound, Odds ratio vs. placebo (6 Hours post dose): 1.44 | Absence of sensitivity to sound, Responder (%) (6 Hours post dose): (56.7) % | Absence of dizziness, Nonresponder (%) (8 Hours post dose): (27.9) % | Absence of dizziness, Odds ratio vs. placebo (8 Hours post dose): 1.33 | Absence of dizziness, Responder (%) (8 Hours post dose): (72.1) % | Absence of fatigue, Nonresponder (%) (8 Hours post dose): (46.1) % | Absence of fatigue, Odds ratio vs. placebo (8 Hours post dose): 1.87 | Absence of fatigue, Responder (%) (8 Hours post dose): (53.9) % | Absence of neck pain, Nonresponder (%) (8 Hours post dose): (49.7) % | Absence of neck pain, Odds ratio vs. placebo (8 Hours post dose): 1.40 | Absence of neck pain, Responder (%) (8 Hours post dose): (50.3) % | Absence of sensitivity to light, Nonresponder (%) (8 Hours post dose): (28.9) % | Absence of sensitivity to light, Odds ratio vs. placebo (8 Hours post dose): 2.40 | Absence of sensitivity to light, Responder (%) (8 Hours post dose): (71.1) % | Absence of sensitivity to sound, Nonresponder (%) (8 Hours post dose): (33.8) % | Absence of sensitivity to sound, Odds ratio vs. placebo (8 Hours post dose): 1.75 | Absence of sensitivity to sound, Responder (%) (8 Hours post dose): (66.2) % | Absence of dizziness, Nonresponder (%) (24 Hours post dose): (11.5) % | Absence of dizziness, Odds ratio vs. placebo (24 Hours post dose): 1.82 | Absence of dizziness, Responder (%) (24 Hours post dose): (88.5) % | Absence of fatigue, Nonresponder (%) (24 Hours post dose): (31.4) % | Absence of fatigue, Odds ratio vs. placebo (24 Hours post dose): 1.19 | Absence of fatigue, Responder (%) (24 Hours post dose): (68.6) % | Absence of neck pain, Nonresponder (%) (24 Hours post dose): (28.6) % | Absence of neck pain, Odds ratio vs. placebo (24 Hours post dose): 1.42 | Absence of neck pain, Responder (%) (24 Hours post dose): (71.4) % | Absence of sensitivity to light, Nonresponder (%) (24 Hours post dose): (18.1) % | Absence of sensitivity to light, Odds ratio vs. placebo (24 Hours post dose): 1.37 | Absence of sensitivity to light, Responder (%) (24 Hours post dose): (81.9) % | Absence of sensitivity to sound, Nonresponder (%) (24 Hours post dose): (16.9) % | Absence of sensitivity to sound, Odds ratio vs. placebo (24 Hours post dose): 1.38 | Absence of sensitivity to sound, Responder (%) (24 Hours post dose): (83.1) % | Absence of dizziness, Nonresponder (%) (48 Hours post dose): (10.5) % | Absence of dizziness, Odds ratio vs. placebo (48 Hours post dose): 1.66 | Absence of dizziness, Responder (%) (48 Hours post dose): (89.5) % | Absence of fatigue, Nonresponder (%) (48 Hours post dose): (22.9) % | Absence of fatigue, Odds ratio vs. placebo (48 Hours post dose): 1.22 | Absence of fatigue, Responder (%) (48 Hours post dose): (77.1) % | Absence of neck pain, Nonresponder (%) (48 Hours post dose): (22.2) % | Absence of neck pain, Odds ratio vs. placebo (48 Hours post dose): 1.01 | Absence of neck pain, Responder (%) (48 Hours post dose): (77.8) % | Absence of sensitivity to light, Nonresponder (%) (48 Hours post dose): (11.8) % | Absence of sensitivity to light, Odds ratio vs. placebo (48 Hours post dose): 1.52 | Absence of sensitivity to light, Responder (%) (48 Hours post dose): (88.2) % | Absence of sensitivity to sound, Nonresponder (%) (48 Hours post dose): (11.7) % | Absence of sensitivity to sound, Odds ratio vs. placebo (48 Hours post dose): 0.93 | Absence of sensitivity to sound, Responder (%) (48 Hours post dose): (88.3) % | Effect on the most commonly reported prodrome symptoms compared with placebo (mITT): ameliorated the most commonly reported prodrome symptoms | Earliest time at which difference in response rates vs placebo was nominally significant, absence of fatigue (post-dose): 3 h | Earliest time at which difference in response rates vs placebo was nominally significant, absence of neck pain (post-dose): 3 h

— patent publication US20260130901A1, “CGRP RECEPTOR ANTAGONIST FOR THE TREATMENT OF MIGRAINE” (ALLERGAN PHARMACEUTICALS INTERNATIONAL LIMITED, priority 2022, published 2026)
